Patent US20120220571A1, “HIV INTEGRASE INHIBITORS” (priority 2009, published 2012)

How the values were obtained:
[1] = target: T1, HIV-1 integrase (Human immunodeficiency virus type 1 group M subtype B, UniProt P04585); experiment: HIV integrase assay: strand transfer catalyzed by recombinant integrase; assay type: biochemical; conditions: inhibition of strand transfer activity
T1 construct: Strand Transfer Catalyzed by Recombinant Integrase
Procedure: Assays for the strand transfer activity of HIV-1 integrase were conducted in accordance with WO 02/30930 for recombinant integrase. […] For example, the compounds prepared in Examples 1 to 4 were tested in the integrase assay and found to have the IC50 values in Table B.
Further description on conducting the assay using preassembled complexes is found in Wolfe, A. L. et al., J. Virol. 1996, 70: 1424-1432, Hazuda et al., J. Virol. 1997, 71: 7005-7011; Hazuda et al., Drug Design and Discovery 1997, 15: 17-24; and Hazuda et al., Science 2000, 287: 646-650.

[2] = system: HIV; experiment: Inhibition of acute HIV infection, single cycle infectivity ("vertical") assay in HeLa P4-2 cells; assay type: cell-based; conditions: Human immunodeficiency virus 1, IIIB / NL43, HeLaP4-2
Procedure: An assay for measuring the inhibition of acute HIV infection with HeLa P4-2 cells in a single cycle infectivity assay (alternatively referred to as the “vertical” assay) was conducted in accordance with Joyce, J. G., et al., J. Biol. Chem. 2002, 277, 45811, Hazuda, D. J. et al., Science 2000, 287, 646, and Kimpton, J. et al, J. Virol. 1992, 66, 2232. Infectious virus was produced by transfecting 293T cells with HIV proviral DNA in which the integrase gene was derived from a IIIB isolate and the remainder of the HIV genome was derived from the NL4-3 isolate. […] For example, the compounds of Examples 1 to 4 were tested in this assay and found to have the IC50 values in Table C.

SMILES	IC50 [1]	IC50 [2]
O=C1c2c(occ(O)c2=O)CCN1Cc1ccc(F)cc1 [Example 1, 6-(4-Fluorobenzyl)-3-hydroxy-7,8-dihydro-4H-pyrano[3,2-c]pyridine-4,5(6H)-dione]	3200 nM	43000 nM
C=CCc1c(O)c(=O)c2c(n1C)CCN(Cc1ccc(F)cc1)C2=O [Example 2, 2-Allyl-6-(4-fluorobenzyl)-3-hydroxy-1-methyl-7,8-dihydro-1,6-naphthyridine-4,5(1H,6H)-dione]	100 nM	5000 nM
C=CCCn1c2c(c(=O)c(O)c1C(C)C=C)C(=O)N(Cc1ccc(F)cc1)CC2 (centres unmarked) [Example 3, 1-But-3-en-1-yl-6-(4-fluorobenzyl)-3-hydroxy-2-(1-methylprop-2-en-1-yl)-7,8-dihydro-1,6-napthyridine-4,5(1H,6H)-dione]	100 nM	1000 nM
CC1CCCCn2c3c(c(=O)c(O)c21)C(=O)N(Cc1ccc(F)cc1)CC3 (centres unmarked) [Example 4, 3-(4-Fluorobenzyl)-6-hydroxy-7-methyl-2,3,8,9,10,11-hexahydroazepino[1,2-a]-1,6-napthyridine-4,5(1H,7H)-dione]	120 nM	5000 nM
